{"source": "patent US8278032B2", "about": "“Transporter protein in mammal and utilization of the same” (priority 2005, dated 2012)", "key": {"mMATE1": {"biological_target": "T1, mMATE1 (Mus musculus, UniProt Q8K0H1)", "T1 construct": "expressed in transfected cells; host or cells: HEK293", "T1 sequence (Q8K0H1 with tags, fused parts or gaps)": "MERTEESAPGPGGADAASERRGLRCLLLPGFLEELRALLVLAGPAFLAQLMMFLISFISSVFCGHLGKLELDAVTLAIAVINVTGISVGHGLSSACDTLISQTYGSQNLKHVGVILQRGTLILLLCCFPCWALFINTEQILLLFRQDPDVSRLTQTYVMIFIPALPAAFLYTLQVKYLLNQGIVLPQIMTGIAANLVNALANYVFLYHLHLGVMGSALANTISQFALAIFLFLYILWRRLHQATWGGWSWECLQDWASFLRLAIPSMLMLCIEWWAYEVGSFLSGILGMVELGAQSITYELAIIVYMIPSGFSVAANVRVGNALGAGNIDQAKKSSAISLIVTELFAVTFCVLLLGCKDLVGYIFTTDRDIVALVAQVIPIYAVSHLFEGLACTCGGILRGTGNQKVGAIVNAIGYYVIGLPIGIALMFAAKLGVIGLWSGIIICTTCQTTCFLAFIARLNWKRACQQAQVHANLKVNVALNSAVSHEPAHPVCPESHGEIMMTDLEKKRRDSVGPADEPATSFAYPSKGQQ", "test": "Inhibition of RI-labeled TEA uptake in HEK293 cells expressing mMATE1;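 note: transfected HEK293 cells held 5 min at 37 °C before tracer addition, uptake read as radioactivity retained on a 0.45-µm membrane filter, mean ± SD of three to nine experiments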", "type": "cell-based"}, "hMATE1 [1]": {"biological_target": "T2, hMATE1 (Homo sapiens, UniProt Q96FL8)", "T2 sequence (Q96FL8 1-570)": "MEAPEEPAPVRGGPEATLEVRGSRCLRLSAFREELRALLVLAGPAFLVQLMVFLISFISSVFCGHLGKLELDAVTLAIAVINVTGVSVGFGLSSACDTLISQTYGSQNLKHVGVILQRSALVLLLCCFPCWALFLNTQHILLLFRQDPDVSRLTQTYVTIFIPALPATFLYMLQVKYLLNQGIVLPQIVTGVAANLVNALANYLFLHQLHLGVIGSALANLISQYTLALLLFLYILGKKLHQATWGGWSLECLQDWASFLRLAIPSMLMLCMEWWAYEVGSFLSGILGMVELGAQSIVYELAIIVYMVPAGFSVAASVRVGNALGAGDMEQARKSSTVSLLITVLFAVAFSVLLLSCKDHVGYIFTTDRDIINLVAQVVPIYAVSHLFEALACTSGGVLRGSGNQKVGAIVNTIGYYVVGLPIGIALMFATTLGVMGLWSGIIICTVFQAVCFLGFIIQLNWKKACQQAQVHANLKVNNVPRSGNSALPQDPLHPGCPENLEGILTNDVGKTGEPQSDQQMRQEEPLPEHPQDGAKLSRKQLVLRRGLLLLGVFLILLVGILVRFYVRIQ", "test": "Inhibition of RI-labeled TEA uptake in HEK293 cells expressing hMATE1", "settings": "for Inhibition of TEA uptake activity (in words, summary of Table 1): MATE1 expressing HEK293 cells, 50 μM TEA, pH 8.0"}, "hMATE1 [2]": {"biological_target": "T2, hMATE1"}, "[3]": {"settings": "HEK293, pH 8, read-out: TEA uptake activity percent taking the level with addition of no compound as 100% (% ± S.D.)"}, "[4]": {"settings": "compound 0.1 mM, 50 μM RI-labeled TEA, pH 8.0, HEK293 cells expressing hMATE1"}, "[5]": {"settings": "compound 0.1 mM, 50 μM RI-labeled TEA, pH 8.0, HEK293 cells expressing mMATE1, read-out: TEA uptake activity percent taking the level with addition of no compound as 100% (% ± S.D.)"}, "[6]": {"settings": "compound 0.01 mM, 50 μM RI-labeled TEA, pH 8.0, HEK293 cells expressing hMATE1"}, "[7]": {"settings": "compound 5 mM, 50 μM RI-labeled TEA, pH 8.0, HEK293 cells expressing hMATE1"}}, "note": "Read-outs that look alike come from different tables or passages of the source.", "data": [{"molecule": "CCN(CC)CCNC(=O)c1ccc(N)cc1", "note": "[Procainamide]", "values": [{"measurement": "remaining activity at 100 µM", "setting": "mMATE1; [3]", "value": "65.7 ± 8.2", "unit": "%"}, {"measurement": "TEA uptake activity percent taking the level with addition of no compound as 100% (% ± S.D.)", "setting": "hMATE1 [1]; [4]", "value": "62.6 ± 0.8", "unit": "%"}]}, {"molecule": "C=C[C@H]1C[N@@]2CC[C@H]1C[C@@H]2[C@@H](O)c1ccnc2ccc(OC)cc12", "note": "[Quinidine]", "values": [{"measurement": "remaining activity at 10 µM", "setting": "mMATE1; compound 0.01 mM, 50 μM RI-labeled TEA, pH 8.0, HEK293 cells expressing mMATE1, read-out: TEA uptake activity percent taking the level with addition of no compound as 100% (% ± S.D.)", "value": "74.7 ± 9.8", "unit": "%"}, {"measurement": "remaining activity at 50 µM", "setting": "mMATE1; compound 0.05 mM, 50 μM RI-labeled TEA, pH 8.0, HEK293 cells expressing mMATE1, read-out: TEA uptake activity percent taking the level with addition of no compound as 100% (% ± S.D.)", "value": "50.3 ± 5.4", "unit": "%"}, {"measurement": "remaining activity at 100 µM", "setting": "mMATE1; [5]", "value": "26.6 ± 7.3", "unit": "%"}, {"measurement": "Inhibition of TEA uptake activity (in words, summary of Table 1)", "setting": "hMATE1 [1]", "value": "strongly inhibited"}, {"measurement": "TEA uptake activity percent taking the level with addition of no compound as 100% (% ± S.D.)", "setting": "hMATE1 [1]; [6]", "value": "35.0 ± 2.1", "unit": "%"}, {"measurement": "TEA uptake activity percent taking the level with addition of no compound as 100% (% ± S.D.)", "setting": "hMATE1 [1]; compound 0.05 mM, 50 μM RI-labeled TEA, pH 8.0, HEK293 cells expressing hMATE1", "value": "5.1 ± 8.9", "unit": "%"}, {"measurement": "TEA uptake activity percent taking the level with addition of no compound as 100% (% ± S.D.)", "setting": "hMATE1 [1]; [4]", "value": "0.0 ± 4.2", "unit": "%"}]}, {"molecule": "O=c1[nH]c(=O)c2[nH]c(=O)[nH]c2[nH]1", "note": "[Uric acid]", "values": [{"measurement": "remaining activity at 1000 µM", "setting": "mMATE1; compound 1 mM, 50 μM RI-labeled TEA, pH 8.0, HEK293 cells expressing mMATE1, read-out: TEA uptake activity percent taking the level with addition of no compound as 100% (% ± S.D.)", "value": "109 ± 6.4", "unit": "%"}, {"measurement": "Inhibition of TEA uptake activity (in words, summary of Table 1)", "setting": "hMATE1 [1]", "value": "not inhibited"}, {"measurement": "TEA uptake activity percent taking the level with addition of no compound as 100% (% ± S.D.)", "setting": "hMATE1 [1]; compound 1 mM, 50 μM RI-labeled TEA, pH 8.0, HEK293 cells expressing hMATE1", "value": "107.8 ± 2.7", "unit": "%"}]}, {"molecule": "Rhodamine 123 [Rhodamine123]", "values": [{"measurement": "TEA uptake activity percent taking the level with addition of no compound as 100% (% ± S.D.)", "setting": "mMATE1; compound 0.01 mM, 50 μM RI-labeled TEA, pH 8.0, HEK293 cells expressing mMATE1", "value": "0.5 ± 6.2", "unit": "%"}, {"measurement": "Inhibition of TEA uptake activity (in words, summary of Table 1)", "setting": "hMATE1 [1]", "value": "inhibited"}, {"measurement": "TEA uptake activity percent taking the level with addition of no compound as 100% (% ± S.D.)", "setting": "hMATE1 [1]; [6]", "value": "5.0 ± 6.4", "unit": "%"}]}, {"molecule": "O=C(O)c1ccccc1O", "note": "[Salicylate]", "values": [{"measurement": "TEA uptake activity percent taking the level with addition of no compound as 100% (% ± S.D.)", "setting": "mMATE1; compound 10 mM, 50 μM RI-labeled TEA, pH 8.0, HEK293 cells expressing mMATE1", "value": "92.4 ± 4.3", "unit": "%"}, {"measurement": "TEA uptake activity percent taking the level with addition of no compound as 100% (% ± S.D.)", "setting": "hMATE1 [1]; pH 8", "value": "97.8 ± 4.8", "unit": "%"}]}, {"molecule": "C[N+](C)(C)CC(O)CC(=O)[O-]", "note": "(centres unmarked) [Carnitine]", "values": [{"measurement": "remaining activity at 5000 µM", "setting": "mMATE1; compound 5 mM, 50 μM RI-labeled TEA, pH 8.0, HEK293 cells expressing mMATE1, read-out: TEA uptake activity percent taking the level with addition of no compound as 100% (% ± S.D.)", "value": "71.2 ± 6.1", "unit": "%"}, {"measurement": "TEA uptake activity percent taking the level with addition of no compound as 100% (% ± S.D.)", "setting": "hMATE1 [1]; [7]", "value": "104.2 ± 6.4", "unit": "%"}]}, {"molecule": "COc1ccc2[nH]cc(CCNC(C)=O)c2c1", "note": "[Melatonin]", "values": [{"measurement": "remaining activity at 100 µM", "setting": "mMATE1; [3]", "value": "51.4 ± 0.8", "unit": "%"}, {"measurement": "Inhibition of TEA uptake activity (in words, summary of Table 1)", "setting": "hMATE1 [1]", "value": "inhibited"}, {"measurement": "TEA uptake activity percent taking the level with addition of no compound as 100% (% ± S.D.)", "setting": "hMATE1 [1]; [4]", "value": "85.0 ± 4.0", "unit": "%"}]}, {"molecule": "C[C@]12C[C@H](O)[C@H]3[C@@H](CCC4=CC(=O)CC[C@@]43C)[C@@H]1CC[C@@H]2C(=O)CO", "note": "[Corticosterone]", "values": [{"measurement": "remaining activity at 100 µM", "setting": "mMATE1; [5]", "value": "50 ± 2.5", "unit": "%"}, {"measurement": "Inhibition of TEA uptake activity (in words, summary of Table 1)", "setting": "hMATE1 [1]", "value": "inhibited"}, {"measurement": "TEA uptake activity percent taking the level with addition of no compound as 100% (% ± S.D.)", "setting": "hMATE1 [1]; [4]", "value": "10.0 ± 6.7", "unit": "%"}]}, {"molecule": "C[n+]1ccc(-c2ccccc2)cc1", "note": "[MPP, 1-methyl-4-phenylpyridinium]", "values": [{"measurement": "Vmax of transport", "setting": "hMATE1 [2]; MPP as substrate, MATE1, species not stated", "value": 170, "unit": "pmol/min/mg protein"}, {"measurement": "Km", "setting": "hMATE1 [2]; read-out: Km value of transport, substrate transport, cells expressing wild type MATE1 (TEA: FIG. 9(c)), MPP: MATE1, species not stated", "value": 16, "unit": "µM"}, {"measurement": "TEA uptake activity percent taking the level with addition of no compound as 100% (% ± S.D.)", "setting": "mMATE1; compound 0.1 mM, 50 μM RI-labeled TEA, pH 8.0, HEK293 cells expressing mMATE1", "value": "33.1 ± 9.5", "unit": "%"}, {"measurement": "TEA uptake activity percent taking the level with addition of no compound as 100% (% ± S.D.)", "setting": "mMATE1; compound 5 mM, 50 μM RI-labeled TEA, pH 8.0, HEK293 cells expressing mMATE1", "value": "0.0 ± 2.1", "unit": "%"}, {"measurement": "Inhibition of TEA uptake activity (in words, summary of Table 1)", "setting": "hMATE1 [1]", "value": "inhibited"}, {"measurement": "TEA uptake activity percent taking the level with addition of no compound as 100% (% ± S.D.)", "setting": "hMATE1 [1]; [4]", "value": "67.4 ± 8.4", "unit": "%"}, {"measurement": "TEA uptake activity percent taking the level with addition of no compound as 100% (% ± S.D.)", "setting": "hMATE1 [1]; [7]", "value": "0.0 ± 0.3", "unit": "%"}]}]}
